Laboratory results as given in patent US4849441A, “Isoindolin-1-one derivative and antiarrhythmic agent” (Kyowa Hakko Kogyo Co., Ltd., priority 1986, dated 1989).

What was measured:
[1] = test system: coronary artery ligation-induced arrhythmia in dog; assay: Dog coronary artery ligation-induced arrhythmia test; type: in vivo, dogs; details: Canis lupus familiaris, intravenous, 16 h after ligation, effective if 50% or more of total pulses restored to sinus rhythm, dose effective in 50% or more cases, read-out: Antiarrhythmic Activity B: coronary artery ligation induced arrhythmia in dog (MED)
Excerpt: The antiarrhythmic activity was examined by arrhythmia test induced with chloroform in mice and by arrhythmia test induced by ligation of dog coronary artery.
(B) Dog coronary artery ligation-induced arrhythmia test:
Using dogs weighing 7 to 12 kg, coronary artery ligation-induced arryhthmia occurred in accordance with the Harris method [Circulation, 1, 1318 (1950)]. Namely, the left fifth costa was subjected to thoraco-laparotomy.After the pericardium was incised, the left fore descending branch of the coronary artery was exfoliated around the first side branch and ligated. Sixteen hours after, a test compound was intravenously administered to dogs with multiple ventricular arrhythmic pulses being 90% or more than the total pulses. Then, electrocardiogram was recorded without anesthesia under free movement, and a case where 50% or more of the total pulses was restored to sinus rhythm was judged effective.

dd, male mice [2] = assay: Acute toxicity test (mortality 7 days after administration); type: in vivo; details: mortality at 7 days, minimum lethal dosage
Procedure: Groups each consisting of three dd, male mice having body weights of 20±1 g were used, and the compound of the present invention was intraperitoneally administered. Mortality 7 days after the administration was observed and the minimum lethal dosage (MLD) was determined.

[3] = test system: chloroform-induced arrhythmia in mice; assay: Mice chloroform-induced arrhythmia test; type: in vivo, mice of dd strain; details: oral administration, effective if < 720 pulses/min, Probit method; for ED50: Mus musculus, po, read-out: Antiarrhythmic Activity A: chloroform induced arrhythmia in mice (ED50)
Procedure: The antiarrhythmic activity was examined by arrhythmia test induced with chloroform in mice and by arrhythmia test induced by ligation of dog coronary artery. (A) Mice chloroform-induced arrhythmia test: Using mice of dd strain, weighing 18 to 22 g and fasting and abstaining from water for 4 to 5 hours, an antiarrhythmic effect was evaluated in accordance with the method of Block [Life Science, 28, 2623 (1981)]. That is, after orally administrating each compound, the mice were put in a chloroform atmosphere and taken out after respiratory standstill. Electrocardiogram was measured by the standard limb induction method; in the case when frequent pulse exceeding 720 pulses/min. is continued for 30 seconds or longer, it was judged ineffective and in the case of a heart beat number being less than 720 pulses/min., it was judged effective. ED50 was determined by the Probit method.

dd, male mice [4] = assay: Acute toxicity test (mortality 7 days after administration); type: in vivo; details: mortality at 7 days, minimum lethal dosage; remark: listed apart in the source

| SMILES | minimal effective dose [1] [mg/kg] | Acute Toxicity (MLD) i.p. (dd, male mice [2]) [mg/kg] | ED50 [3] [mg/kg] | Acute Toxicity (MLD) p.o. (dd, male mice [4]) [mg/kg] | Antiarrhythmic Activity A: chloroform induced arrhythmia in mice (ED50) [3] [mg/kg] |
| --- | --- | --- | --- | --- | --- |
| CCN(CC)CCN1C(=O)c2ccccc2C1c1ccccc1N (stereo not drawn) [Compound 1, 3-(2-Aminophenyl)-2-(2-diethylaminoethyl)isoindolin-1-one] | 1.25 | > 100 | 33 | > 300 | – |
| CN(C)CCCN1C(=O)c2ccccc2C1c1ccccc1N (stereo not drawn) [Compound 2] | 5 | > 100 | > 100 | > 300 | – |
| CCN(CC)CCCN1C(=O)c2ccccc2C1c1ccccc1N (stereo not drawn) [Compound 3, 3-(2-Aminophenyl)-2-(3-diethylaminopropyl)isoindolin-1-one] | 2.5 | > 100 | < 100 | 100 | – |
| CCN(CC)CCCCN1C(=O)c2ccccc2C1c1ccccc1N (stereo not drawn) [Compound 4, 3-(2-Aminophenyl)-2-(4-diethylaminobutyl)isoindolin-1-one] | 1.25 | > 100 | 47 | 200 | – |
| CCCCN(CCCC)CCCN1C(=O)c2ccccc2C1c1ccccc1N (stereo not drawn) [Compound 5, 2-(3-dibutylaminopropyl)-3-(2-aminophenyl)isoindolin-1-one] | 1.25 | 25 | 35 | 100 | – |
| CC(C)NCCN1C(=O)c2ccccc2C1c1ccccc1N (stereo not drawn) [Compound 6, 3-(2-Aminophenyl)-2-(2-isopropylaminoethyl)isoindolin-1-one] | 2.5 | > 100 | 36 | 300 | – |
| CCN(CC)CCN1C(=O)c2ccccc2C1c1ccccc1NC (stereo not drawn) [Compound 7, 2-(2-Diethylaminoethyl)-3-(2-methylaminophenyl)isoindolin-1-one] | > 2.5 | 50 | 14 | 50 | – |
| CCN(CC)CCN1C(=O)c2ccccc2C1c1ccccc1N(C)C (stereo not drawn) [Compound 8, 2-(2-Diethylaminoethyl)-3-(2-dimethylaminophenyl)isoindolin-1-one] | 2.5 | 50 | 36 | 100 | – |
| CCNc1ccccc1C1c2ccccc2C(=O)N1CCN(CC)CC (stereo not drawn) [Compound 9, 2-(2-Diethylaminoethyl)-3-(2-ethylaminophenyl)isoindolin-1-one] | > 5 | > 100 | 63 | 200 | – |
| CCN(CC)CCN1C(=O)c2ccccc2C1c1cc(Cl)ccc1N (stereo not drawn) [Compound 11, 3-(2-Amino-5-chlorophenyl)-2-(2-diethylaminoethyl)-isoindolin-1-one] | 5 | > 100 | > 100 | > 300 | – |
| CCN(CC)CCN1C(=O)c2ccccc2C1c1c(C)ccc(C)c1N (stereo not drawn) [Compound 17, 3-(2-Amino-3,6-dimethylphenyl)-2-(2-diethylaminoethyl)-isoindolin-1-one] | – | > 100 | < 25 | 300 | – |
| CCN(CC)CCN1C(=O)c2ccccc2C1c1ccc(N(C)C)cc1 (stereo not drawn) [Compound 18, 2-(2-Diethylaminoethyl)-3-(4-dimethylaminophenyl)-isoindolin-1-one] | 2.5 | 50 | 23 | 100 | – |
| CCN(CC)CCN1C(=O)c2ccccc2C1c1cc(C)cc(C)c1N (stereo not drawn) [Compound 26, 3-(2-Amino-3,5-dimethylphenyl)-2-(2-diethylaminoethyl)-isoindolin-1-one] | – | 100 | < 25 | 200 | – |
| CCN(CC)CCN1C(=O)c2ccccc2C1c1cc(C#N)ccc1N (stereo not drawn) [Compound 31, 3-(2-Amino-5-cyanophenyl)-2-(2-diethylaminoethyl)-isoindolin-1-one] | 2.5 | – | 30 | – | 19 |
| CCN(CC)CCN1C(=O)c2ccccc2C1c1cc(F)ccc1N (stereo not drawn) [Compound 32, 3-(2-Amino-5-fluorophenyl)-2-(2-diethylaminoethyl)-isoindolin-1-one] | – | > 100 | 25 to 50 | 300 | – |
| CCN(CC)CCN1C(=O)c2ccccc2C1c1cccc(C(C)C)c1N (stereo not drawn) [Compound 33, 3-(2-Amino-3-isopropylphenyl)-2-(2-diethylaminoethyl)-isoindolin-1-one] | – | 50 | 14 | 100 | – |
| CCN1CCCC1CN1C(=O)c2ccccc2C1c1cc(C#N)ccc1N (stereo not drawn) [Compound 35] | – | > 100 | 50 to 100 | > 300 | – |
| CC(C)NCCN1C(=O)c2ccccc2C1c1cc(C#N)ccc1N (stereo not drawn) [Compound 36, 3-(2-Amino-5-cyanophenyl)-2-(2-isopropylaminoethyl)-isoindolin-1-one] | – | > 100 | 50 to 100 | > 300 | – |
| CCNCCN1C(=O)c2ccccc2C1c1cc(C#N)ccc1N (stereo not drawn) [Compound 38, 3-(2-Amino-5-cyanophenyl)-2-(2-ethylaminoethyl)-isoindolin-1-one] | 5 | > 100 | 50 | > 300 | – |
